Here are results for 19 molecules from US20240352022A1, “GROUP OF IMB-C5 SERIES COMPOUNDS HAVING ANTI-CORONAVIRUS ACTIVITY AND APPLICATION THEREOF” (priority 2021, published 2024).

pEC50: −log10 of the molar value.

Series [1] relates to HCoV-229E. Put plainly: anti-HCoV-229E activity in Huh7 cells by cytopathic effect (CPE) assay. It counts as cell-based, Human coronavirus HCoV-229E. To be noted: Human coronavirus 229E, Huh-7, HCoV-229E 100 TCID50 in Huh7 cells, about 48 h. (Damage to the host cells serves as the signal in cytopathic effect assays.)
Series [2] relates to HCoV-229E. Put plainly: N protein level of HCoV-229E in Huh7 cells (Western Blotting). It counts as cell-based, Human coronavirus HCoV-229E. The note with it: 24 h. For orientation: In western blotting, separated proteins are transferred to a membrane and probed.
Series [3] can be described thus: in vitro. The note with it: human.
For series [4], the system named is HCoV-229E. Put plainly: anti-HCoV-229E activity in Huh7.5 cells by cytopathic effect (CPE) assay. The format is cell-based, Human coronavirus HCoV-229E. To be noted: Human coronavirus 229E, HCoV-229E 100 TCID50 in Huh7.5 cells, about 48 h.
Series [5] in a line: in vitro. To be noted: human. This is another data set of the same source.
The subject of series [6] is HCoV-229E. Put plainly: mRNA level of HCoV-229E N protein in Huh7 cells (RT-qPCR). It counts as cell-based, Human coronavirus HCoV-229E. To be noted: MOI=17, IMB-85 3, 0.6 and 0.12 μM, 24 h. (In qPCR the cycle at which signal appears reflects the starting amount.)
The subject of series [7] is HCoV-229E. Put plainly: dsRNA production during replication of HCoV-229E in Huh7 cells (immunofluorescence assay). The note with it: MOI=17, 24 h. It counts as cell-based, Human coronavirus HCoV-229E.
A further series relates to HCoV-OC43. Put plainly: N protein level of HCoV-OC43 in C3A cells (Western Blotting). It counts as cell-based, Human coronavirus HCoV-OC43. The note with it: MOI=0.037, IMB-85 10, 2, 0.4 and 0.08 μM, 24 h.
Series [8] relates to HCoV-229E. Put plainly: N protein level of HCoV-229E in Huh7.5 cells (Western Blotting). It counts as cell-based, Human coronavirus HCoV-229E. The note with it: MOI=1, different concentrations, 24 h.
The nature of series [9]: CCK-8 cytotoxicity assay in Huh7 cells. To be noted: human, Huh7 hepatocellular carcinoma cells, CCK-8, 48 hours, read-out: TC50. It counts as cell-based. How it is done: (§1) In order to determine the possible cytotoxicity of IMB-C5 and IMB-85, the CCK-8 assay was first used to detect the effect of the two compounds at different concentrations on viability of different cells 48 hours after administration.

Series [10] can be described thus: CCK-8 cytotoxicity assay in Huh7.5 cells. It counts as cell-based. To be noted: human, Huh7.5 hepatocellular carcinoma cells, CCK-8, 48 hours, read-out: TC50. How it is done: as §1
In series [11] the test system is HCoV-229E. Put plainly: time-of-addition experiment, HCoV-229E in Huh7 cells (Western blotting and immunofluorescence). It counts as cell-based, Human coronavirus HCoV-229E. The arrangement: dose or concentration left out as unconfirmed.

Protocol for HCoV-OC43: The viral N protein level was determined after 24 h.
The effect of IMB-C5 and IMB-85 on N protein level of coronavirus HCoV-OC43 was determined. C3A cells were infected at a viral load of MOI=0.037, and simultaneously administered with IMB-C5 (10 μM), IMB-85 (10 μM, 2 μ, 0.4 μM and 0.08 μM) and MNP (the positive control, 15 μM). After 24 h, the protein was extracted for Western blotting.

Take `Cc1ccccc1Cn1c(NCCO)nc2c1c(=O)n(C)c(=O)n2C` [IMB-68, 8-((2-hydroxyethyl)amino)-1,3-dimethyl-7-(2-methylbenzyl)-3,7-dihydro-1H-purine-2,6-dione]: the pEC50 in the series on HCoV-229E [1] was 5.84. Also, in the series with HCoV-229E [2] (MOI=1, 5 μM compound), the “N protein level of HCoV-229E” value is given as “inhibited HCoV-229E in Huh7 cells to different degrees”. For the same molecule, in “in vitro [3]”, the CC50 is 200 µM.

For the molecule `COC(=O)CNc1nc2c(c(=O)n(C)c(=O)n2C)n1Cc1cccc(OC)c1` [IMB-ZHC-2, methyl(7-(3-methoxybenzyl)-1,3-dimethyl-2,6-dioxo-2,3,6,7-tetrahydro-1H-purin-8-yl)glycinate], the results for the pEC50 in the series with HCoV-229E [1] and in the series on HCoV-229E [4] were 4.54 and 4.37, respectively. The CC50 in the series “in vitro [3]” and in “in vitro [5]” was > 129 µM each time.

Turning to `CCCCc1ccc(Cn2c(NCCO)nc3c2c(=O)n(C)c(=O)n3C)cc1` [IMB-85, 7-(4-butylbenzyl)-8-((2-hydroxyethyl)amino)-1,3-dimethyl-3,7-dihydro-1H-purine-2,6-dione], the pEC50 is 7.05 with HCoV-229E [1] and 5.39 in the series with HCoV-229E [4]. Moreover, the “mRNA level of HCoV-229E N protein” value in the series with HCoV-229E [6] is “decreased mRNA and protein level of HCoV-229E N protein in Huh7 cells in a dose-dependent manner”. For the same molecule, the “dsRNA production during replication of HCoV-229E” value with HCoV-229E [7] is reported as “inhibited dsRNA production”. The “N protein level of HCoV-OC43” value in the series with HCoV-OC43 is on record as “decreased the HCoV-OC43 N protein level in C3A cells in a dose-dependent manner”. In addition, the “N protein level of HCoV-229E” value is “best activity in decreasing HCoV-229E N protein level” with HCoV-229E [2] (MOI=1, 5 μM compound); “decreased the HCoV-229E N protein level in Huh7 cells in a dose-dependent manner” in the series with HCoV-229E [2] (MOI=1, different concentrations); “decreased the HCoV-229E N protein level in Huh7.5 cells in a dose-dependent manner” in the series on HCoV-229E [8]. The “protein level of HCoV-229E N protein” value in the series on HCoV-229E [2] (MOI=17, IMB-85 3, 0.6 and 0.12 μM) is “decreased mRNA and protein level of HCoV-229E N protein in Huh7 cells in a dose-dependent manner”. Also, the CC50 at 48 h in series [9] and in series [10] was > 200 µM throughout. Moreover, the “antiviral effect (N protein and dsRNA level), time of addition” value was “diminished antiviral effect” in the series with HCoV-229E [11] (IMB-85, HCoV-229E MOI=10, administered 6 h or more after infection) and “significant inhibitory effect on virus” in the series on HCoV-229E [11] (IMB-85, HCoV-229E MOI=10, at the time of infection or within 1-5 h after infection).

For `COc1cccc(Cn2c(NCc3ccc(F)c(C(F)(F)F)c3)nc3c2c(=O)n(C)c(=O)n3C)c1` [IMB-ZH-11, 8-((4-fluoro-3-(trifluoromethyl)benzyl)amino)-7-(3-methoxybenzyl)-1,3-dimethyl-3,7-dihydro-1H-purine-2,6-dione], the pEC50 is 4.68 in the series with HCoV-229E [1] and 4.58 in the series on HCoV-229E [4]. Moreover, the CC50 in the series “in vitro [3]” and in the series “in vitro [5]” was > 102 µM each time.

Consider `COc1ccc(Cn2c(NCCO)nc3c2c(=O)n(C)c(=O)n3C)cc1` [IMB-88], for which the pEC50 in the series with HCoV-229E [1] was 4.78; with HCoV-229E [4], 4.63. Moreover, the CC50 in the series “in vitro [3]” and in the series “in vitro [5]” was > 278 µM each time.

For `Cn1c(=O)c2c(nc(NCCO)n2Cc2cccc(Cl)c2F)n(C)c1=O` [IMB-ZHB-4x, 7-(3-chloro-2-fluorobenzyl)-8-((2-hydroxyethyl)amino)-1,3-dimethyl-3,7-dihydro-1H-purine-2,6-dione], the pEC50 in the series with HCoV-229E [1] was 5.42; in the series on HCoV-229E [4], 5.07. Further, the CC50 in “in vitro [3]” and in the series “in vitro [5]” was 91 µM in each case.

The molecule `Cn1c(=O)c2c(nc(NCCO)n2Cc2ccc(Cl)cc2)n(C)c1=O` [IMB-2-14] had a pEC50 in the series with HCoV-229E [1] of 5.84. Also, the “N protein level of HCoV-229E” value with HCoV-229E [2] (MOI=1, 5 μM compound) is listed as “inhibited HCoV-229E in Huh7 cells to different degrees”. Also, the CC50 in “in vitro [3]” stood at 200 µM.

As to `CC(C)C(=O)OC[C@H]1O[C@@H](n2ccc(NO)nc2=O)[C@H](O)[C@@H]1O` [Molnupiravir, reference compound], the figures for the pEC50 with HCoV-229E [1] and with HCoV-229E [4] were 5.72 and 5.37, respectively. In addition, the CC50 in “in vitro [3]” and in the series “in vitro [5]” was > 200 µM throughout.

In the series with HCoV-229E [1], `Cn1c(=O)c2c(nc(NCCO)n2Cc2ccc(OC(F)F)cc2)n(C)c1=O` [IMB-2-8, 7-(4-(difluoromethoxy)benzyl)-8-((2-hydroxyethyl)amino)-1,3-dimethyl-3,7-dihydro-1H-purine-2,6-dione] had a pEC50 of 5.61. For the same molecule, the “N protein level of HCoV-229E” value with HCoV-229E [2] (MOI=1, 5 μM compound) is “inhibited HCoV-229E in Huh7 cells to different degrees”. Besides, the CC50 in the series “in vitro [3]” is > 200 µM.

Regarding `Cn1c(=O)c2c(nc(NCCO)n2Cc2ccc(C(C)(C)C)cc2)n(C)c1=O` [IMB-84, 7-(4-(tert-butyl)benzyl)-8-((2-hydroxyethyl)amino)-1,3-dimethyl-3,7-dihydro-1H-purine-2,6-dione], the pEC50 was 4.81 with HCoV-229E [1] and 4.91 with HCoV-229E [4]. Also, the CC50 in the series “in vitro [3]” and in the series “in vitro [5]” was > 259 µM throughout.

In turn, `Cn1c(=O)c2c(nc(NCCO)n2CC2CCOCC2)n(C)c1=O` [IMB-3-19, ((2-hydroxyethyl)amino)-1,3-dimethyl-7-((tetrahydro-2H-pyran-4-yl)methyl)-3,7-dihydro-1H-purine-2,6-dione] gave a pEC50 with HCoV-229E [1] of 5.73. Further, the “N protein level of HCoV-229E” value with HCoV-229E [2] (MOI=1, 5 μM compound) is “inhibited HCoV-229E in Huh7 cells to different degrees”. The CC50 in the series “in vitro [3]” was > 200 µM.

For the molecule `Cn1c(=O)c2c(nc(NCCO)n2Cc2cccc(Cl)c2)n(C)c1=O` [IMB-2-5, 7-(3-chlorobenzyl)-8-((2-hydroxyethyl)amino)-1,3-dimethyl-3,7-dihydro-1H-purine-2,6-dione], in the series with HCoV-229E [1], the pEC50 is 5.88. In addition, the “N protein level of HCoV-229E” value in the series on HCoV-229E [2] (MOI=1, 5 μM compound) is on record as “inhibited HCoV-229E in Huh7 cells to different degrees”. Further, the CC50 in the series “in vitro [3]” is 200 µM.

`Cn1c(=O)c2c(nc(NCCO)n2Cc2cccc(OC(F)(F)F)c2)n(C)c1=O` [IMB-92, 8-((2-hydroxyethyl)amino)-1,3-dimethyl-7-(3-(trifluoromethoxy)benzyl)-3,7-dihydro-1H-purine-2,6-dione] gave a pEC50 in the series on HCoV-229E [1] of 6.19. For the same molecule, the “N protein level of HCoV-229E” value in the series with HCoV-229E [2] (MOI=1, 5 μM compound) was “inhibited HCoV-229E in Huh7 cells to different degrees”. The CC50 in the series “in vitro [3]” was 144 µM.

With `COc1cccc(Cn2c(NC[C@@H](C)O)nc3c2c(=O)n(C)c(=O)n3C)c1` [IMB-ZHC-6, (R)-8-((2-hydroxypropyl)amino)-7-(3-methoxybenzyl)-1,3-dimethyl-3,7-dihydro-1H-purine-2,6-dione], the pEC50 in the series with HCoV-229E [1] was 4.90; in the series with HCoV-229E [4] it was 4.23. The CC50 in “in vitro [3]” and in “in vitro [5]” was > 134 µM each time.

`COc1cccc(Cn2c(N[C@@H](C)CO)nc3c2c(=O)n(C)c(=O)n3C)c1` [IMB-ZH-2, (S)-8-((1-hydroxypropan-2-yl)amino)-7-(3-methoxybenzyl)-1,3-dimethyl-3,7-dihydro-1H-purine-2,6-dione]: the pEC50 is 4.35 with HCoV-229E [1] and 4.08 in the series on HCoV-229E [4]. Also, the CC50 in “in vitro [3]” and in “in vitro [5]” was > 134 µM in each case.

On to `COc1cccc(Cn2c(N[C@@H](CO)C(C)C)nc3c2c(=O)n(C)c(=O)n3C)c1` [IMB-ZH-12, (R)-8-((1-hydroxy-3-methylbutan-2-yl)amino)-7-(3-methoxybenzyl)-1,3-dimethyl-3,7-dihydro-1H-purine-2,6-dione], for which the pEC50 in the series with HCoV-229E [1] and in the series on HCoV-229E [4] was 4.22 in each case. The CC50 in the series “in vitro [3]” and in “in vitro [5]” was > 125 µM each time.

As to `Cn1c(=O)c2c(nc(NCCO)n2Cc2ccccc2)n(C)c1=O` [IMB-ZHB-13x, 7-benzyl-8-((2-hydroxyethyl)amino)-1,3-dimethyl-3,7-dihydro-1H-purine-2,6-dione], the figures for the pEC50 in the series with HCoV-229E [1] and in the series on HCoV-229E [4] were 5.25 and 4.41, respectively. The CC50 in “in vitro [3]” and in “in vitro [5]” was > 152 µM each time.

In the series with HCoV-229E [1], `Cn1c(=O)c2c(nc(NCCO)n2Cc2c(F)cccc2F)n(C)c1=O` [IMB-93, 7-(2,6-difluorobenzyl)-8-((2-hydroxyethyl)amino)-1,3-dimethyl-3,7-dihydro-1H-purine-2,6-dione] showed a pEC50 of 5.61. In addition, the “N protein level of HCoV-229E” value in the series with HCoV-229E [2] (MOI=1, 5 μM compound) is “inhibited HCoV-229E in Huh7 cells to different degrees”. In “in vitro [3]”, the CC50 is > 200 µM.

With `Cn1c(=O)c2c(nc(NCCO)n2Cc2cccc(F)c2)n(C)c1=O` [IMB-80, 7-(3-fluorobenzyl)-8-((2-hydroxyethyl)amino)-1,3-dimethyl-3,7-dihydro-1H-purine-2,6-dione], the pEC50 in the series with HCoV-229E [1] was 4.97; in the series on HCoV-229E [4], 4.85. Further, the CC50 in “in vitro [3]” and in the series “in vitro [5]” was > 288 µM each time.

One may read the pEC50 as the negative decadic logarithm of the EC50, by convention in mol/L.
